Measurements reported in PubChem BioAssay (NCI).
Where “and” joins values, the source holds several entries; their conditions need not be identical. Identical values can stand only once.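 48-hour exposure; five concentrations; linearly interpolated endpoints. GI50 = concentration required for 50% inhibition of growth. TGI marks complete inhibition of growth.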

Experiments:
Assay in all cases: NCI-60 cell line screen, 48 h
786-0 renal = system: 786-0 renal
A498 renal = system: A498 renal
A549 NSCLC = system: A549 NSCLC
CAKI-1 renal = system: CAKI-1 renal
M14 melanoma = system: M14 melanoma
OVCAR-4 ovarian = system: OVCAR-4 ovarian
RXF 393 renal = system: RXF 393 renal
SF-295 CNS = system: SF-295 CNS
SK-MEL-5 melanoma = system: SK-MEL-5 melanoma
SNB-19 CNS = system: SNB-19 CNS

| SMILES | GI50 (786-0 renal) [µM] | TGI (786-0 renal) [µM] | GI50 (A498 renal) [µM] | TGI (A498 renal) | GI50 (A549 NSCLC) [µM] | TGI (A549 NSCLC) [µM] | GI50 (CAKI-1 renal) [µM] | TGI (CAKI-1 renal) [µM] | GI50 (M14 melanoma) [µM] | TGI (M14 melanoma) [µM] | GI50 (OVCAR-4 ovarian) [µM] | TGI (OVCAR-4 ovarian) | GI50 (RXF 393 renal) [µM] | GI50 (SF-295 CNS) [µM] | TGI (SF-295 CNS) [µM] | GI50 (SK-MEL-5 melanoma) [µM] | TGI (SK-MEL-5 melanoma) [µM] | GI50 (SNB-19 CNS) [µM] | TGI (SNB-19 CNS) [µM] | TGI (RXF 393 renal) |
| --- | --- | --- | --- | --- | --- | --- | --- | --- | --- | --- | --- | --- | --- | --- | --- | --- | --- | --- | --- | --- |
| CCN1C(=O)N(CC)C2C1NN=c1s/c(=C\c3ccc([N+](=O)[O-])cc3)c(=O)n12 (configuration not stated) | 0.621 | > 100 | 0.172 | 0.704 µM | 0.681 | > 100 | 0.395 | > 46.4 | 0.401 | > 43 | 0.744 | 10.5 µM | 0.451 | 0.371 | > 52.2 | 0.343 | 12.1 | 0.683 | > 84.3 | – |
| Cc1ccc2c(c1)/C(=N\N=C/c1cn(C(C)C)c3ccccc13)C(=O)N2 | 18.6 | > 100 | 1.6 | > 100 µM | 5.66 | > 100 | 2.6 | > 100 | 3.95 | > 100 | 0.277 | > 100 µM | 4.31 | > 100 | > 100 | 4.57 | > 100 | 7.18 | > 100 | > 100 µM |
| O=C(O)Cc1ccccc1 | – | > 2000 | > 1000 | > 1000 µM and 1700 µM | > 1000 | > 2000 | > 1000 | > 1000 | > 1000 | > 2000 | > 1000 | > 1000 µM and 727 µM | > 1000 | – | > 2000 | > 1000 | > 2000 | > 1000 | > 2000 | > 1000 µM and 1940 µM |
| Cc1cc(N(CCC#N)CCC#N)ccc1N=Nc1ccc([N+](=O)[O-])cc1 | – | > 100 | – | > 100 µM | – | > 100 | – | > 100 | – | > 100 | – | 44.1 µM | – | – | > 100 | – | > 10 | – | 57.3 | > 100 µM |
| c1ccc(CNc2nc(Nc3ccc(-c4nc5ccccc5[nH]4)cc3)c3cn[nH]c3n2)cc1 | 1.77 | 3.73 | 2.93 | 8.22 µM | 2.89 | 8.92 | 2.13 | 5.47 | 1.72 | 3.81 | 2.28 | 7.14 µM | 1.57 | 1.7 | 3.84 | 1.74 | 3.3 | 4.27 | 31.3 | 3.65 µM |
| CCOC(=O)C1=C(O)CSC1=Nc1ccc(N=C2SCC(O)=C2C(=O)OCC)cc1 | – | 31.4 | – | 50.5 µM | – | 93 | – | 30.8 | – | 52.5 | – | 94.8 µM | – | – | 63.1 | – | 44.3 | – | > 100 | 32.6 µM |
| CC1(C)CCC(CN2CCN(c3ccc(C(=O)NS(=O)(=O)c4ccc(NCC5CCOCC5)c([N+](=O)[O-])c4)c(Oc4cnc5[nH]ccc5c4)c3)CC2)=C(c2ccc(Cl)cc2)C1 | 3.54 | 12.5 | 1.58 | 4.43 µM | 2.4 | 11.8 | 2.91 | 10.7 | 2.54 | 7.07 | 3.53 | 20.4 µM | 1.57 | 2.35 | 7.42 | 1.67 | 3.09 | 3.55 | 23.8 | 3.48 µM |
| CCN(CC)c1ccc(/C=C/C2=[N+](C)c3ccccc3C2(C)C)cc1 | 0.653 | 13.6 | 1.65 | 12.2 µM | 0.518 | > 100 | 0.852 | 12.6 | 0.581 | 19.5 | 0.292 | 29.7 µM | 0.75 | 0.374 | 22.2 | 0.28 | 1.31 | 0.326 | 15.4 | 16.5 µM |
| CCOC(=O)/C(=C/c1c(-c2ccccc2)[nH]c2ccccc12)C(=O)c1ccc(Cl)cc1 | 3.75 | > 100 | 8.81 | > 100 µM | 4.61 | > 100 | 4.12 | > 100 | 3.07 | > 100 | 4.82 | > 100 µM | 17.4 | 4.2 | > 100 | 1.78 | 4.1 | 7.96 | > 100 | > 100 µM |
| COc1ccc(C(NCCNC(c2ccc(OC)c(OC)c2)c2cc3c(cc2O)OCO3)c2cc3c(cc2O)OCO3)cc1OC (configuration not stated) | – | 4.58 | – | 20.2 µM | – | 32.3 | – | 7.77 | – | 8.39 | – | 11.5 µM | – | – | 17.8 | – | 19.9 | – | 15.4 | 4.85 µM |
| COc1ccc(Nc2nc3c(N)cc(C(F)(F)F)cc3nc2-c2ccccc2)cc1 | – | > 100 | – | > 100 µM | – | > 100 | – | > 100 | – | > 100 | – | > 100 µM | – | – | > 100 | – | > 100 | – | > 100 | 68.2 µM |
| Nc1cc2c3c(cccc3c1)C(=O)N(CCN1CCN(CCN3C(=O)c4cccc5cc(N)cc(c45)C3=O)CC1)C2=O | – | > 100 | – | > 100 µM | – | > 100 | – | > 100 | – | > 100 | – | > 100 µM | – | – | > 100 | – | > 100 | – | > 100 | > 100 µM |
| CC1(C)OCC(C2OC(On3nnc4ccc(Cl)cc43)C3OC(C)(C)OC23)O1 (configuration not stated) | – | > 100 | – | > 100 µM | – | > 100 | – | > 100 | – | > 100 | – | > 100 µM | – | – | > 100 | – | > 100 | – | > 100 | > 100 µM |
| Nc1nccc(C#Cc2cncnc2Nc2ccc(OCc3cccc(F)c3)c(Cl)c2)n1 | 7.69 | > 20.1 | 5.05 | > 14.3 µM | 5.99 | > 15.6 | 5.37 | 11 | 4.51 | 9.43 | 9.53 | > 25 µM | 4.02 | 11.7 | > 25 | 3.51 | 6.8 | 4.79 | 10 | 8.9 µM |
| COc1cc2c(cc1OCCCN1CCN(CCCOc3cc4c(cc3OC)C(=O)C3CCC[C@H]3C=N4)CC1)N=C[C@@H]1CCCC1C2=O (some centres not stated) | 3.84 | > 100 | 2.17 | 7.49 µM | 35.8 | > 100 | 26.5 | > 79.8 | 6.25 | 22.7 | 74.3 | > 100 µM | 3 | 9.4 | 79.8 | 2.2 | 6.4 | 23.7 | > 100 | 17.5 µM |
| O=C1c2cccnc2-c2nc(-c3ccccc3)cc3c2c1nc1ccccc13 | 5.88 | 20.1 | 17.1 | 31.2 µM | 6.97 | 21 | 6.67 | 17.5 | 3.57 | 15.7 | 4.33 | 10.1 µM | 16 | 11.4 | 25.3 | 1.27 | 3.88 | 3.71 | 20.1 | 32.3 µM |
| Nc1ccc(C(=O)O)c2[nH]c3ccccc3c(=O)c12 | – | > 100 | – | > 100 µM | – | > 100 | – | > 100 | – | > 100 | – | > 100 µM | – | – | > 100 | – | > 100 | – | > 100 | > 100 µM |
| CCOc1ccc(NC(=O)/C(=C/c2ccccc2)C(C)=O)cc1 | – | 24.8 | – | 35.3 µM | – | 60.8 | – | 25.3 | – | 26 | – | 27.5 µM | – | – | 29.4 | – | 25.6 | – | 24.9 | 19 µM |
| CC[C@]12C=CCN3CC[C@]4(C(=C(C(=O)OC)C1)Nc1ccccc14)[C@@H]32 | 3.66 | 15.6 | 7.12 | 20.2 µM | 12.4 | 31.8 | 4.7 | 17.3 | 2.97 | 12.5 | 4.4 | 17.5 µM | 2.51 | 13 | 26.6 | 4.87 | 16.8 | 10.7 | 23.3 | 7.24 µM |
| c1ccc(COc2ccc(Nc3ncnc4ccc(-c5ccco5)cc34)cc2)cc1 | 4.91 | 12.9 | 5.39 | > 21.6 µM | 6.83 | > 25 | 2.19 | > 25 | 7.31 | 19.9 | 4.69 | 17.1 µM | 3.4 | 8.62 | > 25 | 2.96 | 6.79 | 12.7 | > 25 | 8.61 µM |
| Cn1cc(-c2csc(-c3cn(C)c4ncccc34)n2)c2ccccc21 | 0.588 | 18.1 | 0.496 | 8.65 µM | 0.634 | 23.8 | 0.373 | 32.5 | 0.256 | > 41.4 | 7.1 | 44 µM | 0.299 | 0.274 | 12.6 | 0.286 | 16.2 | 0.574 | 27 | 2.96 µM |
